Experimental data reported in patent US20250171413A1, “ANTIVIRAL INDOLINYL COMPOUNDS AND USES THEREOF” (Gilead Sciences, Inc., priority 2023, published 2025).
pEC50: −log10 of the molar value. Read-outs that look alike come from different tables or passages of the source.

System: HSV-2 virus (MS strain)
Assay: HSV-2 Cellomics Assay (immunofluorescence of HSV protein gD)
Assay type: cell-based
Method: Compounds were tested for their ability to inhibit HSV-2 replication by monitoring the expression of the HSV protein gD using a high-throughput immunofluorescence-based assay. 10-dose, 3-fold serial dilutions of compounds were prepared at starting concentrations of 0.2 or 2 mM in 100% DMSO. 250 nl of compounds were spotted in quadruplicates onto black collagen-coated 384-well microplates with clear bottom (Greiner cat #781956) using a Labcyte ECHO acoustic dispenser. The final starting concentration in the assay was either […]. DMSO (no compound) and pritelivir were included on each microplate as negative and positive controls, respectively.
ARPE-19 cells (ATCC cat #CRL-2302) were maintained DMEM/F-12 Glutamax medium (Thermo Fisher Scientific cat #10565018) supplemented with 10% FBS (Corning cat #35-011-CV) and 1% Penicillin-Streptomycin (cat #30-002-CI). Prior to confluence, cells were transferred to a centrifuge tube and spun for 5 minutes at 1000 rpm. Cells were resuspended in assay medium (DMEM/F-12 Glutamax, 2% FBS, 1% Penicillin-Streptomycin) and counted. Cell density was adjusted to 150,000 cells/ml and infected with HSV-2 virus (MS strain, ATCC cat #VR-540) at a MOI of 0.06 in a 50 ml conical tube for 1 hour under constant rocking. Cells were then spun for 5 minutes at 1000 rpm and the media replaced with assay medium containing either 2% FBS or 10% human serum (EMD Millipore cat #S1-100ML). 50 μl of the infection suspension were added into microplate wells that were pre-spotted with compounds (7,500 cells per well). Plates were incubated for 16 hours at 37° C.
Cell culture medium was aspirated using a Biomek Fx and 50 μl of a paraformaldehyde solution (Electron Microscopy Sciences cat #15712-5) diluted to 4% in DPBS (Corning cat #21-031-CM) were added per well. After a 30-minute incubation at room temperature, plates were washed 4 times with 100 μl/well of PBS using a Biotek plate washer. A 1:500 solution of primary antibody (anti-HSV gD, Virusys cat #P1103) was prepared in permeabilization buffer (Invitrogen cat #00-8333-56) and 50 μl were added into wells. After a 1-hour incubation at room temperature, 50 μl of a 1:1000 solution of secondary antibody (Alexa Fluor 488 goat anti-mouse, Thermo Fisher Scientific cat #A11001) and DAPI (Thermo Fisher Scientific cat #62248) in permeabilization buffer were added into wells and plates were incubated in the dark at room temperature for 1 hour. Plates were washed 4 times again and 50 μl of DPBS were added to all wells prior to sealing the plates with a black adhesive seal. Fluorescence was measured on a Cellomics plate reader.
Data analysis was carried out using the Thermo Scientific HCS Studio software. Briefly, cells were identified using the DAPI nuclear stain and thresholds were set to filter cells out based on shape and size. A second threshold based on green fluorescence intensity (detection of HSV-2 gD) was set to identify HSV-2 infected cells. Data was reported as the average fluorescence intensity of HSV-2 infected cells. EC50 values were defined as the compound concentration that caused a 50% decrease in the average fluorescence intensity and was calculated using a sigmoidal dose-response model to generate curve fits.

[1] = Human alphaherpesvirus 2, HSV-2 (MS strain, MOI 0.06) infected ARPE-19 cells, assay medium containing 2% FBS, 16 hours, read-out: EC50-HSV2-FBS
[2] = Human alphaherpesvirus 2, HSV-2 (MS strain, MOI 0.06) infected ARPE-19 cells, assay medium containing 10% human serum, 16 hours, read-out: EC50-HSV2-10% Human Serum

pEC50 [1] | pEC50 [2] | Compound | pEC50 (Human alphaherpesvirus 2, ARPE-19, read-out: EC50 in HSV-2 Cellomics assay)
8.30 | 6.52 | CCNS(=O)(=O)c1cc2c(cc1F)CCN2C(=O)[C@@H]1Cc2ccc(-c3ccccn3)cc2C1 [Example 30, (R)—N-ethyl-5-fluoro-1-(5-(pyridin-2-yl)-2,3-dihydro-1H-indene-2-carbonyl)indoline-6-sulfonamide] | 
8.00 | 6.24 | CCNS(=O)(=O)c1cc2c(cc1F)CCN2C(=O)[C@H]1Cc2cc(-c3ccccn3)ccc2O1 [Example 31, (R)—N-ethyl-5-fluoro-1-(5-(pyridin-2-yl)-2,3-dihydrobenzofuran-2-carbonyl)indoline-6-sulfonamide] | 
6.64 | 5.62 | CCCC(=O)NS(=O)(=O)c1cc2c(cc1F)C[C@@H](C)N2C(=O)[C@@H]1Cc2ccc(-c3ccccn3)cc2C1 [Example 32, N—(((R)-5-fluoro-2-methyl-1-((R)-5-(pyridin-2-yl)-2,3-dihydro-1H-indene-2-carbonyl)indolin-6-yl)sulfonyl)butyramide] | 
 |  | Cc1nc(N(C)C(=O)Cc2ccc(-c3ccccn3)cc2)sc1S(N)(=O)=O [pritelivir, reference compound] | 6.82
